Measurements as given in ChEMBL document CHEMBL1201862, “PubChem BioAssay data set” (2004).
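All cell lines were grown in 96-well plates and treated with compound for 48 hours. GI50 marks 50% less growth.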 Active and inactive are the calls of the source. No stated cut-off is given here; in the data, active = GI50 up to about 1.1 µM and inactive = higher.

Legend:
Experiment in all cases: growth of human tumour cells (NCI), 48 h
HL-60 = tested on: HL-60
DMS-273 = tested on: DMS-273
IGROV-1 = tested on: IGROV-1
SNB-78 = tested on: SNB-78
EKVX = tested on: EKVX
HCC 2998 = tested on: HCC 2998
LOX IMVI = tested on: LOX IMVI
A549 = tested on: A549
MOLT-4 = tested on: MOLT-4
SK-MEL-2 = tested on: SK-MEL-2
SK-OV-3 = tested on: SK-OV-3
SN12C = tested on: SN12C
SR = tested on: SR
UACC-62 = tested on: UACC-62
NCI-H460 = tested on: NCI-H460
CCRF-CEM = tested on: CCRF-CEM
HT-29 = tested on: HT-29
HOP-92 = tested on: HOP-92
SF-539 = tested on: SF-539

Measured: GI50

O=C1C(Cl)C(c2ccc(Cl)cc2)N1n1cnc2ccccc2c1=O (stereo not given)
inactive: HL-60 39 µM | DMS-273 30.3 µM | IGROV-1 96.2 µM | SNB-78 > 100 µM | EKVX 14.5 µM | HCC 2998 > 100 µM | LOX IMVI 70.5 µM | A549 > 100 µM | MOLT-4 88.9 µM | SK-MEL-2 > 100 µM | SK-OV-3 33.8 µM | SN12C > 100 µM | SR 52.7 µM | UACC-62 87.1 µM | NCI-H460 > 100 µM | CCRF-CEM 48.6 µM | HT-29 > 100 µM

Cn1cc2ccccc2c1-c1nc(N)nc(F)n1
inactive: HL-60 > 100 µM | DMS-273 > 100 µM | HOP-92 > 100 µM | IGROV-1 > 100 µM | SNB-78 > 100 µM | SF-539 > 100 µM | EKVX 64.4 µM | HCC 2998 > 100 µM | LOX IMVI > 100 µM | A549 > 100 µM | MOLT-4 > 100 µM | SK-MEL-2 > 100 µM | SK-OV-3 > 100 µM | SN12C > 100 µM | SR > 100 µM | NCI-H460 > 100 µM | CCRF-CEM > 100 µM | HT-29 > 100 µM

CC(=O)Nc1c(C)ccc2c1C(=O)c1ccccc1C2=O
inactive: HL-60 47.2 µM | DMS-273 > 100 µM | HOP-92 > 100 µM | IGROV-1 > 100 µM | SNB-78 > 100 µM | SF-539 > 100 µM | HCC 2998 > 100 µM | LOX IMVI 79.3 µM | A549 > 100 µM | MOLT-4 > 100 µM | SK-MEL-2 > 100 µM | SK-OV-3 > 100 µM | SN12C > 100 µM | SR > 100 µM | UACC-62 > 100 µM | NCI-H460 > 100 µM | CCRF-CEM 80.4 µM | HT-29 > 100 µM

COc1c(CC(=O)c2ccccc2)c2ccccc2n1C(C)=O
inactive: HL-60 > 100 µM | DMS-273 > 100 µM | HOP-92 > 100 µM | IGROV-1 > 100 µM | SNB-78 > 100 µM | SF-539 > 100 µM | EKVX 35.6 µM | HCC 2998 > 100 µM | A549 > 100 µM | MOLT-4 > 100 µM | SK-MEL-2 > 100 µM | SK-OV-3 > 100 µM | SN12C > 100 µM | SR > 100 µM | UACC-62 > 100 µM | NCI-H460 > 100 µM | CCRF-CEM > 100 µM | HT-29 > 100 µM

CN1CCN(C)C1c1cccc(C2N(C)CCN2C)c1
inactive: HL-60 > 100 µM | DMS-273 > 100 µM | HOP-92 > 100 µM | IGROV-1 > 100 µM | SNB-78 > 100 µM | SF-539 > 100 µM | HCC 2998 > 100 µM | LOX IMVI > 100 µM | MOLT-4 > 100 µM | SK-MEL-2 > 100 µM | SK-OV-3 > 100 µM | SN12C > 100 µM | UACC-62 > 100 µM | NCI-H460 > 100 µM | CCRF-CEM > 100 µM | HT-29 > 100 µM

O=S1(=O)OCCOS(=O)(=O)C1(I)I
inactive: HL-60 21.1 µM | DMS-273 20.6 µM | HOP-92 13.7 µM | IGROV-1 25.3 µM | SNB-78 23.2 µM | SF-539 21.7 µM | EKVX 27.5 µM | HCC 2998 20.8 µM | LOX IMVI 16.2 µM | A549 26.2 µM | MOLT-4 15.9 µM | SK-MEL-2 22 µM | SK-OV-3 21.9 µM | SN12C 17.5 µM | SR 12.3 µM | UACC-62 14.7 µM | CCRF-CEM 10.9 µM | HT-29 24.8 µM

C#CC1(O)CCC2[C@@H]3CCc4cc(Oc5nc(F)nc(-c6c7ccccc7cn6C)n5)ccc4C3CC[C@@]21C (stereo not given in full)
inactive: HL-60 > 70.5 µM | DMS-273 > 66.1 µM | HOP-92 > 100 µM | SNB-78 > 100 µM | SF-539 > 100 µM | EKVX > 100 µM | HCC 2998 > 100 µM | LOX IMVI > 100 µM | A549 > 100 µM | MOLT-4 44.9 µM | SK-MEL-2 > 100 µM | SK-OV-3 > 100 µM | SN12C > 100 µM | SR > 46.3 µM | UACC-62 > 100 µM | NCI-H460 > 79.3 µM | CCRF-CEM 30.7 µM | HT-29 > 100 µM

CCCN1CN(C(C(=O)N[C@@H]2C(=O)N3C(C(=O)O)=C(C)CSC23)c2ccc(O)cc2)CSC1=S (stereo not given in full)
inactive: HL-60 65.9 µM | DMS-273 > 100 µM | HOP-92 > 100 µM | IGROV-1 > 100 µM | SNB-78 > 100 µM | SF-539 > 100 µM | EKVX > 100 µM | LOX IMVI 76.6 µM | A549 > 100 µM | MOLT-4 57.3 µM | SK-MEL-2 > 100 µM | SK-OV-3 > 100 µM | SN12C > 100 µM | UACC-62 > 100 µM | NCI-H460 63.1 µM | CCRF-CEM 66.8 µM | HT-29 > 100 µM

CC(C)(C)S(=O)OC12CC3CC(CC(C3)C1)C2 (stereo not given)
inactive: DMS-273 > 100 µM | IGROV-1 > 100 µM | SNB-78 > 100 µM | SF-539 > 100 µM | EKVX > 100 µM | LOX IMVI > 100 µM | A549 > 100 µM | MOLT-4 > 100 µM | SK-MEL-2 > 100 µM | SN12C > 100 µM | SR > 100 µM | UACC-62 > 100 µM | NCI-H460 > 100 µM | CCRF-CEM > 100 µM | HT-29 > 100 µM

CCC1(N=[N+]=[N-])C(=O)Nc2cc(C)ccc2C1=O (stereo not given)
inactive: HL-60 21.3 µM | DMS-273 23 µM | HOP-92 46.1 µM | IGROV-1 > 100 µM | SNB-78 86.1 µM | SF-539 > 100 µM | EKVX 42.7 µM | HCC 2998 > 100 µM | LOX IMVI 86.5 µM | A549 > 100 µM | MOLT-4 39.4 µM | SK-MEL-2 > 100 µM | SK-OV-3 > 100 µM | SN12C 48.6 µM | UACC-62 62.2 µM | NCI-H460 > 100 µM | CCRF-CEM 34.3 µM | HT-29 89.9 µM

CC/C(=N/O)C(C)C(=O)CCC(=O)Nc1ccc(Cl)cc1 (stereo not given)
inactive: HL-60 > 100 µM | DMS-273 > 100 µM | IGROV-1 > 100 µM | SNB-78 > 100 µM | SF-539 > 100 µM | EKVX > 100 µM | HCC 2998 > 100 µM | LOX IMVI > 100 µM | A549 > 100 µM | MOLT-4 > 100 µM | SK-MEL-2 > 100 µM | SK-OV-3 > 100 µM | SN12C > 100 µM | UACC-62 28.2 µM | NCI-H460 > 100 µM | CCRF-CEM > 100 µM | HT-29 > 100 µM

CNC(=O)C(C)Oc1ccc(OCC2CCCCC2)cc1 (stereo not given)
inactive: HL-60 34.4 µM | DMS-273 > 100 µM | IGROV-1 > 100 µM | SNB-78 > 100 µM | SF-539 > 100 µM | LOX IMVI > 100 µM | A549 > 100 µM | MOLT-4 > 100 µM | SK-MEL-2 > 100 µM | SK-OV-3 > 100 µM | SN12C > 100 µM | UACC-62 > 100 µM | NCI-H460 50.4 µM | CCRF-CEM > 100 µM | HT-29 86.3 µM
